The values below come from patent publication US20260250289A1, “BICYCLIC HETEROCYCLES AND THEIR USE AS WRN INHIBITORS” (Novartis AG, priority 2022, published 2026).

The structures appear in SMILES notation.

One assay concerns SW48 cells. The assay is described as follows: Proliferation assay SW48 (CellTiterGlo). It counts as cell-based. Conditions: Homo sapiens, SW48, 96 h, SW48 colon carcinoma cells, 96 hours, CellTiterGlo; geometric mean of at least 2; read-out: Proliferation Assay SW48 GI50. The text has this: The colon carcinoma cell lines SW48 (RRID: CVCL_1724), HCT 116 (RRID: CVCL_0291) and SNU-407 (RRID: CVCL_5058) were obtained from ATCC. The WRN-knockdown insensitive colon carcinoma cell line DLD-1 (RRID: CVCL_0248) was obtained from the Korean Cell Line Bank (KCLB), and used to generate a derivative in which the endogenous WRN gene copies were knocked out by CRISPR-mediated editing using standard CRISPR methods. The resulting cell line, DLD1-WRN-KO, was used to assess potential off-target compound effects.
SW48, SNU-407 and DLD1-WRN-KO cells were cultured in growth medium composed of RPMI-1640 (Amimed Cat #1-41F22-1), 2 mM L-Glutamine (Amimed Cat #5-10K50), 10 mM HEPES (Gibco Cat #15630-056), 1 mM sodium pyruvate (Amimed Cat #5-60F00-H), 1× Penicillin-Streptomycin (Amimed Cat #4-01F00-H) and 10% fetal calf serum (Amimed Cat #2-01F30-G, Lot #LB11566P). HCT 116 cells were cultured in growth medium composed of McCoys 5A (Amimed catalog #1-18F01-1), 2 mM L-Glutamine (Amimed Cat #5-10K50), 1× Penicillin-Streptomycin (Amimed Cat #4-01F00-H) and 10% fetal calf serum (Amimed Cat #2-01F30-G, Lot #LB11566P). All cells were maintained at 37° C. in a humidified 5% CO2 incubator.
Following filtration through a Steriflip-NY 20 μm filter (Millipore Cat #SCNY00020), trypsinized cells were seeded in 100 microliters growth medium at 2,000 (SW48) or 1,500 (SNU-407, DLD1-WRN-KO, HCT 116) cells/well into white, clear-bottom 96-well plates (Costar Cat #3903). Three replicate plates were prepared for each compound treatment condition. In addition, one plate (termed “day 0”) was prepared to quantify the number of viable cells at the time of compound addition. Following overnight incubation at 37° C. in a humidified 5% CO2 atmosphere, eight 3-fold serial dilutions of a given compound stock (obtained at a concentration of 10 mM in DMSO and stored at 4° C.) were dispensed directly into each of the triplicate assay plates using a HP 300D non-contact Digital Dispenser (TECAN). The final concentration of DMSO was normalized to 0.1% in all wells. 96 hours after compound addition, cellular ATP levels as a surrogate for cell viability was assessed following addition of 50 microliters CellTiterGlo (Promega Cat #G7573) reagent and luminescence quantification on a MPLEX multi-mode plate-reader (TECAN) following a 10 minute incubation at room temperature. The number of viable cells in the “day 0” plate were quantified identically on the day of compound addition.
For data analysis, the assay background signal that was determined in wells containing medium, but no cells, was subtracted from all other data points prior to further calculations. The extent of growth inhibition and potential cell kill was assessed by comparing the ATP levels (measured using CellTiterGlo, Promega) in compound-treated cells with those present at the time of compound addition. To this end, the following conditional concept was programmatically applied in HELIOS, an in-house software applying a multi-step decision tree to arrive at optimal concentration response curve fits (Gubler et al, SLAS DOI: 10.1177/2472555217752140) to calculate % growth (% G) for each compound-treated well: % G=(T−V0)/V0))*100 when T<V0, and % G=(T−V0)/(V−V0)))*100 when T≥V0, where V0 is the viability level at time of compound addition, while V and T represent vehicle-control and compound-treated viability levels, respectively, at the end of the compound incubation. 100%, 0% and −100% signify absence of growth inhibition, growth stasis, and complete cell kill, respectively. Compound concentrations leading to half-maximal growth inhibition (GI50) and residual cell viability at the highest tested compound concentration (Data (cmax), expressed in percent) were routinely calculated. Data analysis can also be carried out using commercially available software designed to derive IC50 values using 4-parameter fits (e.g. GraphPad Prism, XL fit). […]
Background: In ATP-based viability assays light output follows the ATP content of the culture.

The next assay concerns DLD1-WRN-KO cells. The experiment in a line: Proliferation assay DLD1-WRN-KO (CellTiterGlo, off-target effects). It is filed as cell-based. Conditions: 96 hours, geometric mean of at least 2. As to the method:
The WRN-knockdown insensitive colon carcinoma cell line DLD-1 (RRID: CVCL_0248) was obtained from the Korean Cell Line Bank (KCLB), and used to generate a derivative in which the endogenous WRN gene copies were knocked out by CRISPR-mediated editing using standard CRISPR methods. The resulting cell line, DLD1-WRN-KO, was used to assess potential off-target compound effects. […]
Three replicate plates were prepared for each compound treatment condition. In addition, one plate (termed “day 0”) was prepared to quantify the number of viable cells at the time of compound addition. Following overnight incubation at 37° C. in a humidified 5% CO2 atmosphere, eight 3-fold serial dilutions of a given compound stock (obtained at a concentration of 10 mM in DMSO and stored at 4° C.) were dispensed directly into each of the triplicate assay plates using a HP 300D non-contact Digital Dispenser (TECAN). The final concentration of DMSO was normalized to 0.1% in all wells. 96 hours after compound addition, cellular ATP levels as a surrogate for cell viability was assessed following addition of 50 microliters CellTiterGlo (Promega Cat #G7573) reagent and luminescence quantification on a MPLEX multi-mode plate-reader (TECAN) following a 10 minute incubation at room temperature. The number of viable cells in the “day 0” plate were quantified identically on the day of compound addition.
For data analysis, the assay background signal that was determined in wells containing medium, but no cells, was subtracted from all other data points prior to further calculations. The extent of growth inhibition and potential cell kill was assessed by comparing the ATP levels (measured using CellTiterGlo, Promega) in compound-treated cells with those present at the time of compound addition. […] 100%, 0% and −100% signify absence of growth inhibition, growth stasis, and complete cell kill, respectively. Compound concentrations leading to half-maximal growth inhibition (GI50) and residual cell viability at the highest tested compound concentration (Data (cmax), expressed in percent) were routinely calculated. Data analysis can also be carried out using commercially available software designed to derive IC50 values using 4-parameter fits (e.g. GraphPad Prism, XL fit). The reported GI50 values are the geometrical means of at least 2 independent replicates.

Assay [1] concerns the target T1, WRN helicase (aa N517-P1238) (Homo sapiens, UniProt Q14191).
T1 construct: The core helicase motif of the WRN protein (aa N517-P1238) was produced for this assay; His (N); ZZ (N); 3C protease cleavage site (N); made in house; host or cells: Sf21 insect cells (baculovirus; virus and BIICs made in SF9)
The assay is described as follows: WRN ATPase assay (DNA dependent ATP hydrolysis, ADP-Glo). It counts as biochemical. As to conditions: 3 hours pre-incubation, 300 micromolar ATP, FLAP26 DNA; geometric mean of at least 2. The text has this: An ATPase assay was set up to measure the DNA dependent ATP hydrolysis activity of WRN helicase. This assay was used also to assess the inhibition properties of compounds of the invention on DNA dependent WRN ATPase activity.
The core helicase motif of the WRN protein (aa N517-P1238) was produced for this assay (protein production as described above). […] The ADP-Glo assay kit (Promega, Madison, WI) allowing the quantification of ADP produced in ATP hydrolysis reactions was used for setting up this assay.
Time course experiments were first performed in order to determine the best enzymatic assay conditions (including buffer conditions, reaction time and concentrations of protein, ATP and DNA substrates). A typical reaction consists of 10 nM WRN protein, 0.2 nM FLAP26, and 300 micromolar ATP in the following assay buffer: 30 mM Tris pH7.5, 2 mM MgCl2, 0.02% BSA, 50 mM NaCl, 0.1% pluronic F127 prepared in DNAse free water.
To evaluate the inhibition properties of compounds of the invention, serial dilutions were prepared in DMSO (10 half log dilutions from a 10 mM DMSO solution). […] The reaction was stopped with the addition of 5 microliters of the first ADP-Glo reagent and incubated for one hour to remove the excess amount of ATP. Afterwards, 10 microliters of ATP detection reagent was added and incubated for an additional hour before reading. Luminescence output was recorded using Tecan 1000 reader, with 5 minutes delay before reading. Each concentration of compound was tested in duplicates in the assay plate.
Following normalization of activity values for the wells to % inhibition (% inhibition=[(high control-sample)/(high control-low control)]×100), IC50 fitting was carried out from the duplicate determinations present on each plate according to [4]. Data analysis can also be carried out using commercially available software designed to derive IC50 values using 4-parameter fits (e.g. GraphPad Prism, XL fit). The reported IC50 values are the geometrical means of at least 2 independent replicates.

T1 sequence (Q14191 517-1238): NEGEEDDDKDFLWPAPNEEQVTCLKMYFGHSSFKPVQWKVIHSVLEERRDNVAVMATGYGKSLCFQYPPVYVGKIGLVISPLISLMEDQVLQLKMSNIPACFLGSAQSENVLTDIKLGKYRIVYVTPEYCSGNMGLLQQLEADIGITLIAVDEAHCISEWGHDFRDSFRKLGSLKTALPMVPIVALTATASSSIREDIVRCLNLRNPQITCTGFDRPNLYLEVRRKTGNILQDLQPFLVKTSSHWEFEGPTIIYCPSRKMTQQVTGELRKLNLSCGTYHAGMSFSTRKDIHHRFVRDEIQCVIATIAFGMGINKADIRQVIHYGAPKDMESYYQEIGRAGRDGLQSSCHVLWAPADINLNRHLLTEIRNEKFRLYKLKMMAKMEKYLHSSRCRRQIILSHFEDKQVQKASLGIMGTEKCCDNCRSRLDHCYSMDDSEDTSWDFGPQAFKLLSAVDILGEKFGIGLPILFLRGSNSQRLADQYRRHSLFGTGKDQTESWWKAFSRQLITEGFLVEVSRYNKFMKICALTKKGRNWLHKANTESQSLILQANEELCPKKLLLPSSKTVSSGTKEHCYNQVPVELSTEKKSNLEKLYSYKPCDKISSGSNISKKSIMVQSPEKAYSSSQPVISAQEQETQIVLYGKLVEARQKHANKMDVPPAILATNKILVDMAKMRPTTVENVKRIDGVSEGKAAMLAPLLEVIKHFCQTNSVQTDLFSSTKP

Regarding `CC(=O)N1CCN(c2c(C)n(CC(=O)Nc3ccc(C(F)(F)F)cc3)c3nc(-c4cnn(C(F)F)c4)nn3c2=O)CC1` [Example 128, 2-(6-(4-acetylpiperazin-1-yl)-2-(1-(difluoromethyl)-1H-pyrazol-4-yl)-5-methyl-7-oxo-[1,2,4]triazolo[1,5-a]pyrimidin-4(7H)-yl)-N-(4-(trifluoromethyl)phenyl)acetamide], the GI50 in the assay with SW48 cells was 7000 nM; in the assay on DLD1-WRN-KO cells, above 10000 nM. The IC50 in assay [1] came to 800 nM.

Take `CCc1c(N2CCN(C(C)=O)CC2)c(=O)n2nc(C3=CCOCC3)nc2n1CC(=O)Nc1ccc(C(F)(F)F)cc1F` [Example 88, 2-(6-(4-acetylpiperazin-1-yl)-2-(3,6-dihydro-2H-pyran-4-yl)-5-ethyl-7-oxo-[1,2,4]triazolo[1,5-a]pyrimidin-4(7H)-yl)-N-(2-fluoro-4-(trifluoromethyl)phenyl)acetamide]: the GI50 in the assay on SW48 cells is 3000 nM; in the assay with DLD1-WRN-KO cells, above 10000 nM. The same molecule registered a concentration for half-maximal inhibition (IC50) in assay [1] of 500 nM.

Turning to `CC(=O)N1CCN(c2c(C)n(CC(=O)Nc3ccc(C(F)(F)F)cc3Br)c3nc(C4=CCOCC4)nn3c2=O)CC1` [Example 32, 2-(6-(4-acetylpiperazin-1-yl)-2-(3,6-dihydro-2H-pyran-4-yl)-5-methyl-7-oxo-[1,2,4]triazolo[1,5-a]pyrimidin-4(7H)-yl)-N-(2-bromo-4-(trifluoromethyl)phenyl)acetamide], the GI50 in the assay with SW48 cells was 3000 nM; in the assay on DLD1-WRN-KO cells, above 10000 nM. Moreover, inhibition in assay [1] was half-maximal at 800 nM (IC50).

Take `CC(=O)N1CCN(c2c(C)n(CC(=O)Nc3ccc(C(F)(F)F)cc3)c3nc(C4=CCCCO4)nn3c2=O)CC1` [Example 109, 2-(6-(4-acetylpiperazin-1-yl)-2-(3,4-dihydro-2H-pyran-6-yl)-5-methyl-7-oxo-[1,2,4]triazolo[1,5-a]pyrimidin-4(7H)-yl)-N-(4-(trifluoromethyl)phenyl)acetamide]: the figures for the GI50 with SW48 cells and in the assay on DLD1-WRN-KO cells were 4000 nM and above 10000 nM, respectively. Also, the IC50 in assay [1] came to 200 nM.

As to `CCc1ccc(NC(=O)Cn2c(C)c(N3CCN(C(C)=O)CC3)c(=O)n3nc(C4=CCCCO4)nc23)cc1Cl` [Example 31, 2-(6-(4-acetylpiperazin-1-yl)-2-(3,4-dihydro-2H-pyran-6-yl)-5-methyl-7-oxo-[1,2,4]triazolo[1,5-a]pyrimidin-4(7H)-yl)-N-(3-chloro-4-ethylphenyl)acetamide], the GI50 in the assay on SW48 cells is 6000 nM; in the assay with DLD1-WRN-KO cells, above 10000 nM. This molecule also yielded an IC50 in assay [1] of 200 nM.

Consider `CC(=O)N1CCN(c2c(C)n(CC(=O)Nc3ccc(C(F)(F)F)cc3)c3nc(-c4cccnc4)nn3c2=O)CC1` [Example 106, 2-(6-(4-acetylpiperazin-1-yl)-5-methyl-7-oxo-2-(pyridin-3-yl)-[1,2,4]triazolo[1,5-a]pyrimidin-4(7H)-yl)-N-(4-(trifluoromethyl)phenyl)acetamide], for which the results for the GI50 with SW48 cells and with DLD1-WRN-KO cells were 200 nM and above 10000 nM, respectively. In addition, the IC50 in assay [1] came out at 100 nM.

Take `COC(=O)N1CC=C(c2nc3n(CC(=O)Nc4ccc(Cl)c(C(F)(F)F)c4)c(C)c(N4CCN(C(C)=O)CC4)c(=O)n3n2)CC1` [Example 77, methyl 4-(6-(4-acetylpiperazin-1-yl)-4-(2-((4-chloro-3-(trifluoromethyl)phenyl)amino)-2-oxoethyl)-5-methyl-7-oxo-4,7-dihydro-[1,2,4]triazolo[1,5-a]pyrimidin-2-yl)-5,6-dihydropyridine-1(2H)-carboxylate]: the GI50 with SW48 cells was 4000 nM; in the assay with DLD1-WRN-KO cells, above 10000 nM. For the same molecule, in assay [1], the IC50 stood at 200 nM.

Consider `CC(=O)N1CCN(c2c(C)n(CC(=O)Nc3ccc(C(F)(F)F)cc3)c3nc(N4CC=CCC4)nn3c2=O)CC1` [Example 121, 2-(6-(4-acetylpiperazin-1-yl)-2-(3,6-dihydropyridin-1(2H)-yl)-5-methyl-7-oxo-[1,2,4]triazolo[1,5-a]pyrimidin-4(7H)-yl)-N-(4-(trifluoromethyl)phenyl)acetamide], for which the GI50 in the assay on SW48 cells is 5000 nM; in the assay with DLD1-WRN-KO cells it was above 10000 nM. The IC50 in assay [1] worked out at 700 nM.

The term IC50 denotes the concentration needed to halve the response being measured. The low end stands for greater potency, the high end for weaker potency.
